Assay results published in patent publication US11814352B2, “Salts formed by 2-(1-acyloxy-n-pentyl) benzoic acid and basic amino acid or aminoguanidine, and preparation method and application thereof” (JIANGSU KANION PHARMACEUTICAL CO., LTD., priority 2018, dated 2023).
Like-named read-outs stand apart in the source and are kept apart here. Marks after values point to notes of the source that are not given here.

What was measured:
[1] = test system: MCAO rats; assay: Cerebral infarction, cerebral edema and nerve function of rats with focal cerebral ischemia (MCAO); type: in vivo, SD rats; details: MCAO rats; for inhibition at 10 mg/kg/day: Rattus norvegicus
[2] = test system: arteriovenous bypass thrombosis in rats; assay: Effect on arteriovenous bypass thrombosis in rats; type: in vivo, SD rats; details: 10 mg/kg/day tail vein 7 days; for inhibition at 10 mg/kg/day: Rattus norvegicus, 168 h, vs model group
Method in brief: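 Male SD rats (250-280 g) dosed 10 mg/kg/day i.v. (tail vein, saline with 1% DMSO) for 7 days, n=8; vehicle controls. Two hours after the last dose, under pentobarbital, a carotid–jugular shunt holding a weighed suture ran for 15 min; thrombus wet and dry (24 h air-dried) weights taken.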

[3] = test system: histidine-deficient TA97, TA98, TA100 and TA102 strains of Salmonella typhimurium; assay: Bacterial reverse mutation test (Ames test); details: 0.1-1000 μg/dish, with and without S9
Protocol: The test bacteria are the histidine-deficient TA97, TA98, TA100 and TA102 strains of Salmonella typhimurium, and the dose range of the test sample is 0.1-1000 μg/dish.

[4] = Preliminary stability of sample solution in water and methanol; type: physicochemical; details: 1 mg/mL stock prepared 2018 Jun. 25, analysed Jun. 29, Jul. 2, Jul. 7
Protocol: 2018 Jun. […] For each sample test, the stock solution was taken and diluted freshly.
2018 Jun. 29 200 μL of the stock solution was pipetted, 3800 μL of a mobile phase in the initial ratio was added, and 10 μL of a test sample with a concentration of 50 μg/mL was prepared for injection and analysis.
2018 Jul. 2 200 μL of the stock solution was pipetted, 3800 μL of a mobile phase in the initial ratio was added, and 10 μL of a test sample with a concentration of 50 μg/mL was prepared for injection and analysis.
2018 Jul. 7 200 μL of the stock solution was pipetted, 3800 μL of a mobile phase in the initial ratio was added, and 10 μL of a test sample with a concentration of 50 μg/mL was prepared for injection and analysis.
29, 2018 Jul. 2, and 2018 Jul.

[5] = test system: ADP induced platelet aggregation; assay: In vitro anti-platelet aggregation, ADP induced (turbidimetry, PRP); type: cell-based, rabbits; details: read-out: IC50 ADP (10 μM); rabbit PRP, inducer ADP 10 μM, 37° C.
[6] = molecular target: hERG potassium channel of CHO-hERG cells (Homo sapiens, UniProt Q12809); assay: Effect on hERG potassium channel (automatic patch clamp)
[7] = 10 mg/kg/day iv 3 days (combinations equimolar), first dose 2 h after reperfusion

hERG potassium channel of CHO-hERG cells, sequence (Q12809 whole entry, the tested form may be a part): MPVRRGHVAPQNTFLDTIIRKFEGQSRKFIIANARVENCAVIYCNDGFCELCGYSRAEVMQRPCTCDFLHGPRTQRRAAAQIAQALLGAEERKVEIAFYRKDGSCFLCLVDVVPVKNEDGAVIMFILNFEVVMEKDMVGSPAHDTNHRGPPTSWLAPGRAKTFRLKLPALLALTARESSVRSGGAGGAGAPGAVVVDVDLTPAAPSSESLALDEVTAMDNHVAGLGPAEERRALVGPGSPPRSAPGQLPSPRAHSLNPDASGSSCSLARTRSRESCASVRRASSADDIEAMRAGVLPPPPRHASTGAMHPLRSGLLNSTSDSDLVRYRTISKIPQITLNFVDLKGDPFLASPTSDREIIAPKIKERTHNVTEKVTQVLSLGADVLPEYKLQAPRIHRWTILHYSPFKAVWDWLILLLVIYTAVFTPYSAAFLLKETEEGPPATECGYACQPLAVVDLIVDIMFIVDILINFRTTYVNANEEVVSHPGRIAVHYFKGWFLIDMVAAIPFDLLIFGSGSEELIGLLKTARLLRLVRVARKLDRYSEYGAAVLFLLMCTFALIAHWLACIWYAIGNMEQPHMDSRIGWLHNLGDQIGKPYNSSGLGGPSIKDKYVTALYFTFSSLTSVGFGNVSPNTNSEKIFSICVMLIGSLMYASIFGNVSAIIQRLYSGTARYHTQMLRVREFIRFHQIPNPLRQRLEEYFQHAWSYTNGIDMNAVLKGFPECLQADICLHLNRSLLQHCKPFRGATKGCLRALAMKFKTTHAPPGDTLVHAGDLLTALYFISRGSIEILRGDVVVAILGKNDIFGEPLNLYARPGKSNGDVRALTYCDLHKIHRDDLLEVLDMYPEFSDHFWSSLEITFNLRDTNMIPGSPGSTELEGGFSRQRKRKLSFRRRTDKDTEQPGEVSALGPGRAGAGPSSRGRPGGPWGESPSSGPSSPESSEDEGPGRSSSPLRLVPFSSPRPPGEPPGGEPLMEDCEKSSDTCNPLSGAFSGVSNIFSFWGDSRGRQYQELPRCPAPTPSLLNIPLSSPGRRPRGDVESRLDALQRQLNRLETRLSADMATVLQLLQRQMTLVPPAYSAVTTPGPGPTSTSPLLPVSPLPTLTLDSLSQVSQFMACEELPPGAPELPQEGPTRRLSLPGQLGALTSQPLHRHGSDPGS

For `CCCC[C@H](OC(C)=O)c1ccccc1C(=O)O` [I1s, L-Arginine (S)-2-(1-Acetoxy-n-Pentyl) Benzoate], the Cerebral edema [1, 7] was 0.18 ± 3.96%, the Infarct volume [1, 7] was 9.12 ± 1.18% and the “Neurological function of rats with focal cerebral ischemia” value ([1]; 10 mg/kg/day iv, 2 h after reperfusion) was “significant neurological improvement effects”. For the same compound, the inhibition at 10 mg/kg/day ([1]; 10 mg/kg/day iv 3 days (combinations equimolar), first dose 2 h after reperfusion, read-out: Inhibition rate of cerebral edema) was 98.8%, the inhibition at 10 mg/kg/day ([1]; 10 mg/kg/day iv 3 days (combinations equimolar), first dose 2 h after reperfusion, read-out: Inhibition rate of infarct volume) was 78.2% and the “Dry weight of thrombus” value ([2]; 2 h after last dose) was 5.52 ± 0.44. For the same compound, the “Wet weight of thrombus” value ([2]; 2 h after last dose) was 20.23 ± 1.25**^, the inhibition at 10 mg/kg/day ([2]; read-out: Inhibition rate (dry weight of thrombus)) was 45% and the inhibition at 10 mg/kg/day ([2]; read-out: Inhibition rate (wet weight of thrombus)) was 44.1%. For the same compound, the “Ames test result (mutagenicity)” value [3] was “negative”, the “Stability of the sample solution in CH3OH” value [4] was “basically stable” and the “Stability of the sample solution in H2O” value [4] was “basically stable”. It also gave an IC50 [5] of 720 ± 80 µM and an IC50 [6] greater than 40 µM.
